Assay results: patent publication US10954231B2, “Anxiolytic compounds” (Bionomics Limited, priority 2006, dated 2021)

Columns and labels:
Format in all cases: in vivo
mice [1] = assay: Open field (dark), spontaneous motor activity; parameters: key to OF: sedation: NS: no sedation; S: sedation; conditions: oral, 60 min before test; for OF: sedation: 20 min recording; for OF: maximum non-sedating dose: for examples marked * 20 mg/kg is the only dose tested
Excerpt: The open field (dark) is used to measure the spontaneous motor activity of mice in a quiet, dark environment. This system is useful for discriminating the sedating or stimulating properties of test compounds on spontaneous locomotion and can thus provide a preliminary indication of potentially adverse effects such as sedation.
The apparatus is an open plexiglass cage (52×52 cm) with 40 cm walls. The animal's movements are tracked by a computerised video tracking system, consisting of an overhead camera, diode sensors placed underneath the floor of the cage, computer and video analyser software (ViewPoint, France). The video camera is placed at 2.50 m above the cage and connected to the computer via a video capture card (Pinnacle Systems, France). The video tracking system is set in a way that the floor of the OF is divided into nine equal squares. The total number of crossed squares and the total walked distance are recorded.
Each animal is singly placed in a corner of the apparatus and its locomotor activity is automatically recorded over a period of 20 minutes.
The apparatus is cleaned between each animal with alcohol (70%).
The below items were tested in the Open Field as indicated by an entry in the OF column. NS=no sedation; S=sedation. The maximum non-sedating dose in mg/kg is shown.
Test compound was prepared in 5% PEG400−0.9% NaCl. It was administered orally, 60 minutes before the implementation of the test.

mice [2] = assay: Light dark test; conditions: oral, 60 min before test; for LD: significant anxiolytic effect (number of significant parameters): parameters: time spent in lit area, transitions into lit area, total walked distance in lit area; for minimal effective dose at 20 mg/kg: Mus musculus, 1 h, for examples marked * 20 mg/kg is the only dose tested, read-out: LD: minimum effective dose
Excerpt: The light dark paradigm is based on a conflict between the innate aversion of rodents to brightly illuminated areas and on the spontaneous exploratory behaviour of the mice. If given a choice between a large brightly compartment versus a small dark compartment they spontaneously prefer the dark part.
The apparatus consists of two PVC (polyvinylchloride) boxes (19×19×15 cm) covered with Plexiglas. One of these boxes is darkened. The other box is illuminated by 100 W desk lamp placed 15 cm above and providing an illumination of about 4400 Lux. An opaque plastic tunnel (5×7×10 cm) separates the dark box from the illuminated one.
Animals were placed individually in the lit box, with head directed towards the tunnel. The time spent in the lit box and the number of transitions between the two boxes was recorded over a 5 min period after the first entry of the animal in the dark box. The total walked distance in the lit box was also recorded. Animals scored without entry into the […] were excluded from the analysis.
The compounds in Table 1 were tested in the light-dark test (indicated in the LD column). +=a significant anxiolytic effect in one of the three parameters measured in the LD model, ++ represents a significant effect in 2 parameters and +++ is significance in all three. The parameters are: time spent in the lit area, number of transitions into the lit area, or total walked distance in the lit area.
The test compound was prepared in 5% PEG400-0.9% NaCl.
(§1) It was administrated orally, 60 minutes before the implementation of the test.

mice [3] = assay: Marble burying test; conditions: oral, 60 min before test, 20 min session
Excerpt: The Marble Burying test is used as a model for both anxiety and obsessive compulsive disorders. Mice have a natural tendency to bury marbles under the bedding when placed in a cage with rows of evenly spaced marbles on the floor. Suppression of this spontaneous burying has been used as a measure of anxiolytic drug action. Mice pre-treated with benzodiazepines and different classes of antidepressants bury less marbles when compared to the control mice
The apparatus consists of transparent polycarbonate cages (30 cm×18 cm×19 cm) containing a 5 cm layer of fine sawdust bedding and 20 glass marbles (diameter: 1.5 cm) spaced evenly along the walls of the cage. Each animal is placed individually in the cage where it remains for a 20 min test session. On termination of the test session the animals are removed from the cage and the number of marbles at least two-thirds buried in the sawdust is recorded.
Example 1 was tested in the Marble Burying model. The minimum effective dose in mg/kg is indicated in the MB column in Table 1.
The test compound was prepared in 5% PEG400−0.9% NaCl.
as §1

rat = assay: Elevated plus maze; parameters: key to EPM rat: significant anxiolytic effect (number of significant parameters): +: a significant anxiolytic effect in one of the three parameters measured in the LD model; ++: represents a significant effect in 2 parameters; +++: is significance in all three; conditions: oral, 60 min before test

| Compound | OF: sedation (mice [1]) | OF: maximum non-sedating dose (mice [1]) | LD: significant anxiolytic effect (number of significant parameters) (mice [2]) | MB: minimum effective dose (mice [3]) | EPM rat: minimum effective dose (rat) | EPM rat: significant anxiolytic effect (number of significant parameters) (rat; parameters: time spent in open arms, transitions into open arms, total walked distance in open arms) | minimal effective dose at 20 mg/kg (mice [2]) |
| --- | --- | --- | --- | --- | --- | --- | --- |
| CCn1cc(C(=O)N2CCOCC2)c(=O)c2cc(NC3Cc4ccccc4C3)cnc21 [Example 1, Morpholino 6-(2,3-dihydro-1H-inden-2-yl)amino-1-ethyl-1,4-dihydro-4-oxo-1,8-naphthyridine-3-carboxamide] | NS | 100 mg/kg | ++ | 1 mg/kg | 0.1 mg/kg | +++ |  |
| CCn1cc(C(=O)N2CCOCC2)c(=O)c2nc(NC3Cc4ccccc4C3)ccc21 [Example 2, Morpholino 6-(2,3-dihydro-1H-inden-2-ylamino)-1-ethyl-1,4-dihydro-4-oxo-1,5-naphthyridine-3-carboxamide] | S | 5 mg/kg | +++ |  |  |  | 30 mg/kg |
| CCn1cc(C(=O)N2CCOCC2)c(=O)c2cc(NC3Cc4ccccc4C3)ncc21 [Example 3, morpholino 6-(2,3-dihydro-1H-inden-2-ylamino)-1-ethyl-1,4-dihydro-4-oxo-1,7-naphthyridine-3-carboxamide] |  |  | ++ |  |  |  |  |
| CCn1cc(C(=O)N2CCN(C)CC2)c(=O)c2cc(NC3Cc4ccccc4C3)cnc21 [Example 4, Methylpiperazino 6-(2,3-dihydro-1H-inden-2-ylamino)-1-ethyl-1,4-dihydro-4-oxo-1,8-naphthyridine-3-carboxamide] |  |  | ++ |  |  |  | 20 mg/kg |
| CCn1cc(C(=O)NC2CC2)c(=O)c2cc(NC3Cc4ccccc4C3)cnc21 [Example 5, Cyclopropylamino 6-(2,3-dihydro-1H-inden-2-ylamino)-1-ethyl-1,4-dihydro-4-oxo-1,8-naphthyridine-3-carboxamide] |  |  | + |  |  |  | 20 mg/kg |
| CCN(CC)C(=O)c1cn(CC)c2ncc(NC3Cc4ccccc4C3)cc2c1=O [Example 6] | NS | 20 mg/kg | ++ |  |  |  | 20 mg/kg |
| CCOC(=O)c1cn(CC)c2ncc(NC(=O)c3cc(OC)c(OC)c(OC)c3)cc2c1=O [Example 7, Ethyl 6-(3,4,5-trimethoxybenzoylamide)-1-ethyl-1,4-dihydro-4-oxo-1,8-naphthyridine-3-carboxylate] | S | 20 mg/kg | ++ |  |  |  | 20 mg/kg |
| CCn1cc(C(=O)Nc2ccc(F)cc2)c(=O)c2cc(NC3Cc4ccccc4C3)cnc21 [Example 8] | NS | 20 mg/kg | ++ |  |  |  | 20 mg/kg |
| CCn1cc(C(=O)Nc2ccc(-c3ccccc3)cc2)c(=O)c2cc(NC3Cc4ccccc4C3)cnc21 [Example 9, 4-biphenylamino-6-(2,3-dihydro-1H-inden-2-ylamino)-1-ethyl-1,4-dihydro-4-oxo-1,8-naphthyridine-3-carboxamide] | NS | 20 mg/kg | +++ |  |  |  | 20 mg/kg |
| CCOC(=O)c1cn(CC)c2ncc(NC(=O)C(C)C)cc2c1=O [Example 10, Ethyl 6-(isobutyrylamide)-1-ethyl-1,4-dihydro-4-oxo-1,8-naphthyridine-3-carboxylate] | NS | 20 mg/kg | +++ |  |  |  | 20 mg/kg |
